Results reported in article PMC12974487, “Inhibition of FicD-mediated AMPylation and deAMPylation by isoprenoid diphosphates” (Proceedings of the National Academy of Sciences of the …, 2026).
Substitutions are numbered along the chain they refer to.

Columns and labels:
FicD^L258D = target: T1, FicD^L258D (Homo sapiens, UniProt Q9BVA6, L258D); experiment: Isothermal titration calorimetry (ITC) with Δ104hFicD^L258D; type: binding; details: 4 mM MgCl2
T1 construct: soluble ER luminal domain (residues 105 to 458) of wild-type human FicD and three mutants; 6xHis-Sumo (N, cleaved yes); made in house; host or cells: Rosetta(DE3) E. coli
T1 sequence (Q9BVA6 105-458 L258D): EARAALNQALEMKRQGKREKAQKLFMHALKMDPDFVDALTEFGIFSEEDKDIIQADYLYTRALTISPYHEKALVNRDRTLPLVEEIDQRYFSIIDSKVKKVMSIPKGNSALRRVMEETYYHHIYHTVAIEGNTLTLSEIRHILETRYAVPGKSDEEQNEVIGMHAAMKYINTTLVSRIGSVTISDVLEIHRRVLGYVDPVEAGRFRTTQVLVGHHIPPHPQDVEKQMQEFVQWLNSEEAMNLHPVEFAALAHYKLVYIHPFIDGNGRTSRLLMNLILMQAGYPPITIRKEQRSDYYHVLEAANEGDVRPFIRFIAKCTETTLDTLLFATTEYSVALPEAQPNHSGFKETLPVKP
Text: To further support this notion, we used Isothermal Titration Calorimetry (ITC) to determine the Kd of FPP binding. […] In these experiments, the interaction between FPP and Mg^2+ generated endothermic peaks that interfered with detecting the interaction between FPP, Mg^2+, and FicD (Fig. 3, Upper). The stoichiometry of FPP binding to FicD was consistently <0.85, which may indicate that Mg^2+ was not saturating. Because the endothermic interaction between Mg^2+ and FPP limited the quantity of MgCl2 we could add, the measured Kd could be larger than the true value.
Fig. 3. ITC with FicD and Farnesyl-pyrophosphate. Representative ITC thermogram for FPP binding to Δ104hFicD^L258D (Upper). […] Dissociation constants (Kd) of individual replicates and global fitting of triplicate isotherms are reported with 1σ error intervals in parenthesis. TEXT PRINTED IN THE PICTURE: no label printed: Kd (nM): 32.3 (15.6, 54.9) (Replicate 1); Kd (nM): 25.6 (10.1, 47.7) (Replicate 2); Kd (nM): 45.2 (29.4, 68.8) (Replicate 3); Kd (nM): 60.3 (23.1, 126.3) (Global) DOUBTS OF THE COPYIST ABOUT THIS PICTURE: The picture prints no substance label; the table rows are replicates and a global fit of one measurement, so all four Kd values are given under one unlabeled substance. […]
Isothermal Titration Calorimetry
Proteins were dialyzed against 25mM HEPES pH 7.4/100mM KCl/10% glycerol prior to titration.
Dialyzed proteins were then spun down at 21,000G for 15 minutes at 4C to remove trace insoluble material. The protein concentration was measured spectrophotometrically and then diluted to working concentration with 25mM HEPES pH 7.4/100mM KCl/10% glycerol. MgCl2 was added to proteins to a final concentration of 4mM. ITC experiments were performed in a Micro-Cal PEAQ-ITC (Malvern Panalytical, Worcestershire, UK) calorimeter with a stirred 206.2 μL reaction cell held at 20 °C. 250μM FPP was titrated into 25uM Δ104hFicL258D with 750rpm stirring. The first injection was 0.5 μL, followed by twenty 1.9 μL injections. ITC data were integrated and baseline corrected using NITPIC 2.1.5 (10, 11). Integrated data was globally analyzed in SEDPHAT 15.b (12) using a model considering a single class of binding sites. […]
10% Lithium dodecyl sulfate, 50% glycerol, 50mM DTT, 0.05% Bromophenol blue) and then heated […]
For deAMPylation assays with FicD and BiP, Δ26hBiPT229A was in-vitro AMPylated by […]
5mM MgCl2, 500uM ATP, 0.5% CHAPS, 1mM DTT. After one hour of incubation at 30-37C, the entire reaction mix was transferred into an Amicon 0.5mL 50kDa MWCO concentrator (cat no.
7.4/150mM NaCl/10% glycerol/1mM DTT was added to the concentrated AMPylation reaction and then spun down again at 14,000 x g at 4C for 5-10 minutes. This step was repeated four times to buffer exchange AMPylated Δ26hBiPT229A.
Δ104hFicDWT and Δ26hBiPT229A-AMP were combined at a ratio of 1:80 in buffer containing 25mM HEPES pH 7.4, 100mM KCl, 5mM MgCl2, 1mM DTT and the indicated small molecule where applicable. Reactions were incubated at 37C for 1 hour and stopped by the addition EDTA. 5X SDS sample buffer (250mM Tris pH 6.8, 10% Lithium dodecyl sulfate, 50% glycerol, 50mM DTT, 0.05% Bromophenol blue) was then added to the reactions and reactions were heated for 5 minutes at […]
For in-vitro AMPylation assays with VopS and CDC42, Δ30VopS and GST-CDC42 – provided by a previous lab member – were combined at a 1:80 molar ratio in 50mM Tris pH 7.4/100mM NaCl/1mM DTT in the presence of GPP or FPP, where applicable. […]

FicD^R371S = target: T2, FicD^R371S (Homo sapiens, UniProt Q9BVA6, R371S); experiment: DSF with FicD^R371S variant; type: binding; details: addition of 5 mM MgCl2, any concentration tested
T2 construct: Wild-type FicD (residues 105-458) and all mutants were expressed as N-terminal 6xHis-Sumo fusions; 6xHis-Sumo (N, cleaved yes); made in house; host or cells: Rosetta(DE3) E. coli
T2 sequence (Q9BVA6 105-458 R371S): T1 sequence (Q9BVA6 105-458 L258D) with D154L, R267S

CC(C)=CCC/C(C)=C/CC/C(C)=C/COP(=O)(O)OP(=O)(O)O [FPP, farnesyl-pyrophosphate]
stoichiometry of binding to FicD (ITC) (FicD^L258D): < 0.85
binding to FicD^R371S by DSF (FicD^R371S): did not confer FPP binding
